Data from patent US6683096B2, “Indolylpiperidine derivatives as antihistaminic and antiallergic agents” (Almirall Prodesfarma, S.A., priority 1999, dated 2004).
Like-named read-outs stand apart in the source and are kept apart here.

How the values were obtained:
histamine-H1 receptors = biological target: T1, histamine-H1 receptors (Cavia porcellus, UniProt P31389); test: Histamine-H1 receptor binding assay ([3H]-mepyramine, guinea pig cerebellum membranes)
T1 construct: performed in guinea pig cerebellum membranes; from tissue; host or cells: guinea pig cerebellum membranes
T1 sequence (P31389 whole entry): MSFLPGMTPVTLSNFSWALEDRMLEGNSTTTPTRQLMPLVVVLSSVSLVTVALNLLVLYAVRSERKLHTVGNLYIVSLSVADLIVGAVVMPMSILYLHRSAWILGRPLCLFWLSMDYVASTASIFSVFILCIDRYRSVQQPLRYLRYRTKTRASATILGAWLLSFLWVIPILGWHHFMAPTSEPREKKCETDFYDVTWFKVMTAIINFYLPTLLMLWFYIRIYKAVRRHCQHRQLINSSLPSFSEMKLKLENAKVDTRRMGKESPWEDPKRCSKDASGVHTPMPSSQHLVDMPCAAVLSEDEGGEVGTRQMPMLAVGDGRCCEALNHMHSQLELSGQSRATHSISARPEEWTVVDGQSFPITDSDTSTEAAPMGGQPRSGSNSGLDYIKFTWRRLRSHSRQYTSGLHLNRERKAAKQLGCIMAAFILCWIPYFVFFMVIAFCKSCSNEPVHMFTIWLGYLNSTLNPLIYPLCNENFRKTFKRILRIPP
Description: (1) Histamine-H1 receptor binding assay
Briefly, the membrane suspensions (160 μg/ml) were incubated at 30° C. with 0.7 nM [^3H]- mepyramine and different concentrations of the test compounds in a final volume of 250 μl. Binding reactions were terminated by filtration after 30 min of incubation and the bound radioactivity was determined. The specific binding was measured in the presence of 10 μM of promethazine. The affinity of each test compound to the receptor was determined by using at least six different concentrations run in duplicate. IC50 values were obtained by non-linear regression by use of SAS on a DEC AXP computer.

[1] = system: histamine-induced skin vascular permeability in rats; test: Histamine-induced skin vascular permeability in rats; assay type: in vivo; details: Rattus norvegicus, po; 3 mg/Kg orally, 4 hours after administration, male Wistar rats; read-out: inhibition of the histamine-induced wheal
Description: (2) Histamine-induced skin vascular permeability in rats
Male Wistar rats (180-210 g) were treated orally with the test compound or vehicle. One, 4, 8 and 24 hours later, the rats were lightly anaesthetized with ether. The cutaneous reaction was induced by two intradermal injections of 50 μl of histamine (100 μg/ml) onto the back, followed by a intravenous injection of 3 ml/kg of Evan's Blue (5 mg/ml), both dissolved in saline. Sixty min later, the rats were killed by cervical dislocation and the back skin dissected free. The diameter (in millimeters) of the wheal was measured in two directions and the area was calculated.

[2] = guinea pig cerebellum membranes, 0.7 nM [3H]-mepyramine, read-out: BINDING TO RECEPTOR H1 ( IC50 nM )

Compound	IC50 (histamine-H1 receptors; [2]) [nM]	inhibition in vivo at 3 mg/kg [1] [%]	melting point [°C]	IC50 (histamine-H1 receptors) [nM]
O=C(O)COCCN1CCN(C(c2ccccc2)c2ccc(Cl)cc2)CC1 (stereo not drawn) [CETIRIZINE, reference compound]	226			
O=C(O)c1ccccc1OCCN1CCC(c2cn(Cc3ccc(F)cc3)c3ccccc23)CC1 [Example 1, 2-(2-{4-[1-(4-fluoro-benzyl)-1H-indol-3-yl]-piperidin-1-yl}-ethoxy)-benzoic acid]	310			
CCCCCn1cc(C2CCN(CCOc3ccccc3C(=O)O)CC2)c2ccccc21 [Example 2, 2-{2-[4-(1-pentyl-1H-indol-3-yl)-piperidin-1-yl]-ethoxy}-benzoic acid]	57	> 50	113	
CCOCCn1cc(C2CCN(CCCC(=O)O)CC2)c2ccccc21 [Example 3, 4-{4-[1-(2-ethoxy-ethyl)-1H-indol-3-yl]-piperidin-1-yl}-butyric acid]	347			
CCOCCn1cc(C2CCN(CCOc3cccc(C(=O)O)c3)CC2)c2ccccc21 [Example 10]	145			
CCCCCn1cc(C2CCN(CCCOc3ccccc3C(=O)O)CC2)c2ccccc21 [Example 15, 2-{3-[4-(1-pentyl-1H-indol-3-yl)-piperidin-1-yl]-propoxy}-benzoic acid]	88			
CCOCCn1cc(C2CCN(CCCOc3cccc(C(=O)O)c3)CC2)c2ccccc21 [Example 19, 3-(3-{4-[1-(2-ethoxy-ethyl)-1H-indol-3-yl]-piperidin-1-yl}-propoxy)-benzoic acid]	89			
CCOCCn1cc(C2CCN(CCc3ccc(C=CC(=O)O)cc3)CC2)c2ccccc21 [Example 32, 3-[4-(2-{4-[1-(2-ethoxy-ethyl)-1H-indol-3-yl]-piperidin-1-yl}-ethyl)-phenyl]-acrylic acid]	59			
CCCCCn1cc(C2CCN(CCCC(O)c3ccc(C(C)(C)C(=O)O)cc3)CC2)c2ccccc21 (stereo not drawn) [Example 34, 2-(4-{1-hydroxy-4-[4-(1-pentyl-1H-indol-3-yl)-piperidin-1-yl]-butyl}-phenyl)-2-methyl-propionic acid]	127			
CCCCCn1cc(C2CCN(CCOCC(=O)O)CC2)c2ccccc21 [Example 38, {2-[4-(1-pentyl-1H-indol-3-yl)-piperidin-1-yl]-ethoxy}-acetic acid]				174
COCCOCCn1cc(C2CCN(Cc3ccc(C(=O)O)o3)CC2)c2ccccc21 [Example 40, 5-(4-{1-[2-(2-methoxy-ethoxy)-ethyl]-1H-indol-3-yl}-piperidin-1-yl-methyl)-furan-2-carboxylic acid]	210		159	
CCCCCn1cc(C2CCN(Cc3ccc(C(=O)O)o3)CC2)c2ccccc21 [Example 41, 5-[4-(1-pentyl-1H-indol-3-yl)-piperidin-1-yl-methyl]-furan-2-carboxylic acid]	111	> 50	163 to 165	
O=C(O)c1cccc(CN2CCC(c3c[nH]c4ccccc34)CC2)c1 [Example 54, 3-[4-(1H-indol-3-yl)-piperidin-1-ylmethyl]-benzoic acid]	106			
CCOCCn1cc(C2CCN(Cc3cccc(C(=O)O)c3)CC2)c2ccccc21 [Example 66, 3-{4-[1-(2-ethoxy-ethyl)-1H-indol-3-yl]-piperidin-1-ylmethyl}-benzoic acid]	248			
CCOCCn1cc(C2CCN(CCOc3cccc(F)c3C(=O)O)CC2)c2cccc(Br)c21 [Example 85, 2-(2-{4-[7-bromo-1-(2-ethoxy-ethyl)-1H-indol-3-yl]-piperidin-1-yl}-ethoxy)-6-fluoro-benzoic acid]	152			
CC(C)OCCn1cc(C2CCN(CCOc3ccccc3C(=O)O)CC2)c2ccccc21 [Example 108, 2-(2-{4-[1-(2-iso-propoxy-ethyl)-1H-indol-3-yl]-piperidin-1-yl}-ethoxy)-benzoic acid]	275	> 50		
C=CCOCCn1cc(C2CCN(CCOc3ccccc3C(=O)O)CC2)c2ccccc21 [Example 134, 2-(2-{4-[1-(2-allyloxy-ethyl)-1H-indol-3-yl]-piperidin-1-yl}-ethoxy)-benzoic acid]	86			

Compound	IC50 (histamine-H1 receptors; [2]) [nM]	inhibition in vivo at 3 mg/kg [1] [%]	melting point [°C]	IC50 (histamine-H1 receptors) [nM]
CCOCCn1cc(C2CCN(CCOc3ccc(C(=O)O)cc3)CC2)c2ccccc21 [Example 137, 4-(2-{4-[1-(2-ethoxy-ethyl)-1H-indol-3-yl]piperidin-1-yl}-ethoxy)-benzoic acid]	150			
CCOCCn1cc(C2CCN(CCOc3ccccc3C(=O)O)CC2)c2ccccc21 [Example 138, 2-(2-{4-[1-(2-ethoxy-ethyl)-1H-indol-3-yl]piperidin-1-yl}-ethoxy)-benzoic acid]	86	> 50		
CC(C)CCn1cc(C2CCN(CCOc3ccccc3C(=O)O)CC2)c2ccccc21 [Example 139, 2-(2-{4-[1-(3-methyl-butyl)-1H-indol-3-yl]-piperidin-1-yl}-ethoxy)-benzoic acid]	205		150 to 151	
COCCn1cc(C2CCN(CCOc3ccccc3C(=O)O)CC2)c2ccccc21 [Example 140, 2-(2-{4-[1-(2-methoxy-ethyl)-1H-indol-3-yl]-piperidin-1-yl}-ethoxy)-benzoic acid]	83	> 50	139 to 140	
C=CCn1cc(C2CCN(CCOc3ccccc3C(=O)O)CC2)c2ccccc21 [Example 141, 2-{2-[4-(1-allyl-1H-indol-3-yl)-piperidin-1-yl]-ethoxy}-benzoic acid]	97	> 50	123 to 125	
CCOCCn1cc(C2CCN(CCOc3ccc(C)cc3C(=O)O)CC2)c2cc(OC)ccc21 [Example 142, 2-(2-{4-[1-(2-ethoxy-ethyl)-5-methoxy-1H-indol-3-yl]-piperidin-1-yl}-ethoxy)-5-methyl-benzoic acid]	386	> 50	144 to 146	
CCOCCn1cc(C2CCN(CCOc3ccc(C)cc3C(=O)O)CC2)c2cccc(Br)c21 [Example 143, 2-(2-{4-[7-bromo-1-(2-ethoxy-ethyl)-1H-indol-3-yl]-piperidin-1-yl}-ethoxy)-5-methyl-benzoic acid]	222			
CCOCCn1cc(C2CCN(CCOc3ccc(C)cc3C(=O)O)CC2)c2cc(F)ccc21 [Example 145, 2-(2-{4-[1-(2-ethoxy-ethyl)-5-fluoro-1H-indol-3-yl]-piperidin-1-yl}-ethoxy)-5-methyl-benzoic acid]	116			
CCCCn1cc(C2CCN(CCOc3ccccc3C(=O)O)CC2)c2ccccc21 [Example 148, 2-{2-[4-(1-butyl-1H-indol-3-yl)-piperidin-1-yl]-ethoxy}-benzoic acid]	127	> 50		
CCCCCCn1cc(C2CCN(CCOc3ccccc3C(=O)O)CC2)c2ccccc21 [Example 149, 2-{2-[4-(1-hexyl-1H-indol-3-yl)-piperidin-1-yl]-ethoxy}-benzoic acid]	142	> 50		
O=C(O)c1ccccc1OCCN1CCC(c2cn(CC3CC3)c3cc(F)ccc23)CC1 [Example 150, 2-{2-[4-(1-cyclopropylmethyl-6-fluoro-1H-indol-3-yl)-piperidin-1-yl]-ethoxy}-benzoic acid]	121	> 50	97	
O=C(O)c1ccccc1OCCN1CCC(c2c[nH]c3ccccc23)CC1 [Example 151, 2-{2-[4-(1H-indol-3-yl)-piperidin-1-yl]-ethoxy}-benzoic acid]			230	
CCOCCn1cc(C2CCN(CCC(=O)O)CC2)c2ccccc21 [Example 153, 3-{4-[1-(2-ethoxy-ethyl)-1H-indol-3-yl]-piperidin-1-yl}-propionic acid]	245			
CCOCCn1cc(C2CCN(CCOc3ccc(C)cc3C(=O)O)CC2)c2ccccc21 [Example 154, 2-(2-{4-[1-(2-ethoxy-ethyl)-1H-indol-3-yl]-piperidin-1-yl}-ethoxy)-5-methyl-benzoic acid]			109 to 112	
O=C(O)c1ccccc1OCCN1CCC(c2cn(CC3CC3)c3ccccc23)CC1 [Example 157, 2-{2-[4-(1-cyclopropylmethyl-1H-indol-3-yl)-piperidin-1-yl]-ethoxy}-benzoic acid]	140	> 50	145 to 147	
O=C(O)c1cccc(CN2CCC(c3cn(CC4CC4)c4ccccc34)CC2)c1 [Example 158, 3-[4-(1-cyclopropylmethyl-1H-indol-3-yl)-piperidin-1-ylmethyl]-benzoic acid]	104	> 50	207	
O=C(O)Cc1ccc(OCCCN2CCC(c3cn(CC4CC4)c4ccccc34)CC2)cc1 [Example 159, (4-{3-[4-(1-cyclopropylmethyl-1H-indol-3-yl)-piperidin-1-yl]-propoxy}-phenyl)-acetic acid]	68		83 to 85	
